# Assay results as given in ChEMBL document CHEMBL1136438, “Inhibitors of hepatitis C virus NS3.4A protease 1. Non-charged tetrapeptide variants” (Bioorg Med Chem Lett, 2003).
# *1 amine or outer side, *2 acyl side, *3 side chain or, on linkers, in order; H or OH if unused. Where a SMILES comes first, the peptide text is derived from it. Side-chain parts run from the residue outwards. [ ]: non-standard residue; d: D form. The star is where a group is joined. ξ: configuration not given here. Pro(4R-OPh) = O=C(O)[C@@H]1C[C@@H](Oc2ccccc2)CN1; CH2(1-naphthyl) = c1ccc2c(C*)cccc2c1; NH(1-naphthyl) = c1ccc2c(N*)cccc2c1; Adipoyl = O=C(CCCCC(=O)[*:2])[*:1]; 1Naphthoyl = O=C(c1cccc2ccccc12)*; 2Naphthoyl = O=C(c1ccc2ccccc2c1)*; Pyrazinecarbonyl = O=C(c1cnccn1)*; Hyp = O=C(O)[C@@H]1C[C@@H](O)CN1; ξAla(CF3) = NC(CC(F)(F)F)C(=O)O; Nva = CCC[C@H](N)C(=O)O; X1 = c1ccc2cc(C*)ccc2c1; X2 = Clc1ccc(Cl)c(N*)c1; X4 = COc1ccc(OC)c(N*)c1; 2Abz = Nc1ccccc1C(=O)O; Abu = CC[C@H](N)C(=O)O; X3 = c1ccc2c(c1)CCCN2*; Aib = CC(C)(N)C(=O)O; CO = O=C([*:1])[*:2]; Bz = O=C(c1ccccc1)*; NHPh = c1ccc(N*)cc1; Bn = c1ccc(C*)cc1
# Target: Hepatitis C virus serine protease, NS3/NS4A (Hepatitis C virus, UniProt A3EZI9+D2K2A8)
# Sequence (D2K2A8 whole entry): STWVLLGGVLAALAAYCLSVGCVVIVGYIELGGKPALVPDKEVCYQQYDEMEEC
# Sequence (A3EZI9 whole entry): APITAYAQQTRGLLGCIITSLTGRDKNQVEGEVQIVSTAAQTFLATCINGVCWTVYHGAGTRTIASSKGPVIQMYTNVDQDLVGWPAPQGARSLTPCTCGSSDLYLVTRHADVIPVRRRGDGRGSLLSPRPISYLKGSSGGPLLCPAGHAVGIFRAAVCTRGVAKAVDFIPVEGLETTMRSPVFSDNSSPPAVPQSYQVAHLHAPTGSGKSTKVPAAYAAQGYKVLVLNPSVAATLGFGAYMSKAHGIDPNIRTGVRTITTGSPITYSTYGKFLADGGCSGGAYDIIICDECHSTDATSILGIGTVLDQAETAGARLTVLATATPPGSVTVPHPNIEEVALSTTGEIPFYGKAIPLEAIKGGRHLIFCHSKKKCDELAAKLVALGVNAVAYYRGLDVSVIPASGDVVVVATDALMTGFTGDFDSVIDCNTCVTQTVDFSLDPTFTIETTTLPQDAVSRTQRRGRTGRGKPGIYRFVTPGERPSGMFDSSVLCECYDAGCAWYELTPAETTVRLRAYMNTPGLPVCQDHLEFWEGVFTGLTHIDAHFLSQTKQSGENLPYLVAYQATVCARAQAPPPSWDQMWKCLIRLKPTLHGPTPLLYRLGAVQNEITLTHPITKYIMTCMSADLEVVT
# Assay: (§1) Inhibition of HCV (Hepatitis C Virus) NS3-4A protease.
# Assay type: protein-complex assay, Hepacivirus hominis
row,SMILES,Ki
1,CC(C)[C@H](NC(=O)c1cnccn1)C(=O)N[C@H](C(=O)N1C[C@H](OCc2ccccc2)C[C@H]1C(=O)NC(C)(C)C=O)C(C)C (Pyrazinecarbonyl-VV[Hyp](Bn)[Aib]-aldehyde),> 50 µM
2,CC[C@@H](C=O)NC(=O)[C@@H]1C[C@@H](OCc2ccccc2)CN1C(=O)[C@@H](NC(=O)[C@@H](NC(=O)c1cnccn1)C(C)C)C(C)C (Pyrazinecarbonyl-VV[Hyp](Bn)[Abu]-aldehyde),12 µM
3,CC[C@@H](C=O)NC(=O)[C@@H]1C[C@@H](OCc2ccccc2)CN1C(=O)[C@@H](NC(=O)[C@@H](NC(=O)[C@H](CC(=O)O)NC(=O)[C@H](CCC(=O)O)NC(C)=O)C(C)C)C(C)C (Ac-EDVV[Hyp](Bn)[Abu]-aldehyde),0.89 µM
4,CC(C)[C@H](NC(=O)c1cnccn1)C(=O)N[C@H](C(=O)N1C[C@H](OCc2ccccc2)C[C@H]1C(=O)NC(C=O)CC(F)(F)F)C(C)C (some centres not stated) (Pyrazinecarbonyl-VV[Hyp](Bn)[ξAla(CF3)]-aldehyde),3.1 µM
5,CCC[C@@H](C=O)NC(=O)[C@@H]1C[C@@H](OCc2ccccc2)CN1C(=O)[C@@H](NC(=O)[C@@H](NC(=O)c1cnccn1)C(C)C)C(C)C (Pyrazinecarbonyl-VV[Hyp](Bn)[Nva]-aldehyde),3.8 µM
6,COC[C@@H](C=O)NC(=O)[C@@H]1C[C@@H](OCc2ccccc2)CN1C(=O)[C@@H](NC(=O)[C@@H](NC(=O)c1cnccn1)C(C)C)C(C)C (Pyrazinecarbonyl-VV[Hyp](Bn)S(Me)-aldehyde),> 50 µM

# Target: Hepatitis C virus serine protease, NS3/NS4A (Hepatitis C virus, UniProt D2K2A8+A3EZI9)
# Sequence (D2K2A8 whole entry): as the sequence (D2K2A8 whole entry) above
# Sequence (A3EZI9 whole entry): as the sequence (A3EZI9 whole entry) above
# Assay: as §1
# Assay type: protein-complex assay, Hepacivirus hominis
row,SMILES,Ki
1,CC[C@@H](C=O)NC(=O)[C@@H]1C[C@@H](OC(=O)Nc2cc(Cl)ccc2Cl)CN1C(=O)[C@@H](NC(=O)[C@@H](NC(=O)c1cnccn1)C(C)C)C(C)C (Pyrazinecarbonyl-VV[Hyp]([CO-X2])[Abu]-aldehyde),3.2 µM
2,CC[C@@H](C=O)NC(=O)[C@@H]1C[C@@H](OC(=O)Nc2ccccc2C(=O)OC)CN1C(=O)[C@@H](NC(=O)[C@@H](NC(=O)c1cnccn1)C(C)C)C(C)C (Pyrazinecarbonyl-VV[Hyp]([CO-2Abz-OMe])[Abu]-aldehyde),2.5 µM
3,CC[C@@H](C=O)NC(=O)[C@@H]1C[C@@H](OC(=O)c2ccc3ccccc3c2)CN1C(=O)[C@@H](NC(=O)[C@@H](NC(=O)c1cnccn1)C(C)C)C(C)C (Pyrazinecarbonyl-VV[Hyp](2Naphthoyl)[Abu]-aldehyde),0.4 µM
4,CC[C@@H](C=O)NC(=O)[C@@H]1C[C@@H](OC(=O)N2CCCc3ccccc32)CN1C(=O)[C@@H](NC(=O)[C@@H](NC(=O)c1cnccn1)C(C)C)C(C)C (Pyrazinecarbonyl-VV[Hyp]([CO-X3])[Abu]-aldehyde),0.89 µM
5,CC[C@@H](C=O)NC(=O)[C@@H]1C[C@@H](Oc2ccccc2)CN1C(=O)[C@@H](NC(=O)[C@@H](NC(=O)c1cnccn1)C(C)C)C(C)C (Pyrazinecarbonyl-VV[Pro(4R-OPh)][Abu]-aldehyde),3.9 µM
6,CC[C@@H](C=O)NC(=O)[C@@H]1C[C@@H](OC(=O)c2ccc3ccccc3c2)CN1C(=O)[C@@H](NC(=O)[C@@H](NC(=O)CCCCC(=O)O)C(C)C)C(C)C (Adipoyl-VV[Hyp](2Naphthoyl)[Abu]-aldehyde),0.11 µM
7,CC[C@@H](C=O)NC(=O)[C@@H]1C[C@@H](OC(=O)c2cccc3ccccc23)CN1C(=O)[C@@H](NC(=O)[C@@H](NC(=O)c1cnccn1)C(C)C)C(C)C (Pyrazinecarbonyl-VV[Hyp](1Naphthoyl)[Abu]-aldehyde),1.9 µM
8,CC[C@@H](C=O)NC(=O)[C@@H]1C[C@@H](Oc2cccc3cccnc23)CN1C(=O)[C@@H](NC(=O)[C@@H](NC(=O)c1cnccn1)C(C)C)C(C)C,> 50 µM
9,CC[C@@H](C=O)NC(=O)[C@@H]1C[C@@H](OC(=O)Nc2cc(OC)ccc2OC)CN1C(=O)[C@@H](NC(=O)[C@@H](NC(=O)c1cnccn1)C(C)C)C(C)C (Pyrazinecarbonyl-VV[Hyp]([CO-X4])[Abu]-aldehyde),7.9 µM
10,CC[C@@H](C=O)NC(=O)[C@@H]1C[C@@H](Oc2cccc3ccccc23)CN1C(=O)[C@@H](NC(=O)[C@@H](NC(=O)c1cnccn1)C(C)C)C(C)C,2.1 µM
11,CC[C@@H](C=O)NC(=O)[C@@H]1C[C@@H](OC(=O)Nc2cccc3ccccc23)CN1C(=O)[C@@H](NC(=O)[C@@H](NC(=O)c1cnccn1)C(C)C)C(C)C (Pyrazinecarbonyl-VV[Hyp]([CO-NH(1-naphthyl)])[Abu]-aldehyde),12.5 µM
12,CC[C@@H](C=O)NC(=O)[C@@H]1C[C@@H](OC(=O)Nc2ccccc2)CN1C(=O)[C@@H](NC(=O)[C@@H](NC(=O)c1cnccn1)C(C)C)C(C)C (Pyrazinecarbonyl-VV[Hyp]([CO-NHPh])[Abu]-aldehyde),22.3 µM
13,CC[C@@H](C=O)NC(=O)[C@@H]1C[C@@H](OC(=O)c2ccccc2)CN1C(=O)[C@@H](NC(=O)[C@@H](NC(=O)c1cnccn1)C(C)C)C(C)C (Pyrazinecarbonyl-VV[Hyp](Bz)[Abu]-aldehyde),5.8 µM
14,CC[C@@H](C=O)NC(=O)[C@@H]1C[C@@H](OCc2ccc3ccccc3c2)CN1C(=O)[C@@H](NC(=O)[C@@H](NC(=O)c1cnccn1)C(C)C)C(C)C (Pyrazinecarbonyl-VV[Hyp](X1)[Abu]-aldehyde),1.7 µM
15,CC[C@@H](C=O)NC(=O)[C@@H]1C[C@@H](OCc2cccc3ccccc23)CN1C(=O)[C@@H](NC(=O)[C@@H](NC(=O)c1cnccn1)C(C)C)C(C)C (Pyrazinecarbonyl-VV[Hyp](CH2(1-naphthyl))[Abu]-aldehyde),2.9 µM
16,CC[C@@H](C=O)NC(=O)[C@@H]1C[C@@H](Oc2ccc3ccccc3c2)CN1C(=O)[C@@H](NC(=O)[C@@H](NC(=O)c1cnccn1)C(C)C)C(C)C,7.4 µM
